According to ChEMBL document CHEMBL1151200, “Comparison of fascaplysin and related alkaloids: a study of structures, cytotoxicities, and sources” (J Nat Prod, 2004):

Key:
[1] = Cytotoxicity against human H116 cells at 18 ug/disk by disk diffusion soft agar colony formation assay; assay type: functional
[2] = Cytotoxicity against mouse CFU-GM cells at 18 ug/disk by disk diffusion soft agar colony formation assay; assay type: cell-based
[3] = tested on: MC-38; assay: Cytotoxicity against mouse C38 cells at 18 ug/disk by disk diffusion soft agar colony formation assay; assay type: functional
[4] = tested on: CCRF-CEM; assay: Cytotoxicity against human CEM cells at 18 ug/disk by disk diffusion soft agar colony formation assay; assay type: functional
[5] = tested on: L1210; assay: Cytotoxicity against mouse L1210 cells at 18 ug/disk by disk diffusion soft agar colony formation assay; assay type: functional
[6] = Cytotoxicity against human H125 cells at 18 ug/disk by disk diffusion soft agar colony formation assay; assay type: functional
[7] = Cytotoxicity against mouse CFU-GM cells at 200 ug/disk by disk diffusion soft agar colony formation assay; assay type: cell-based
[8] = Cytotoxicity against human H116 cells at 200 ug/disk by disk diffusion soft agar colony formation assay; assay type: functional
[9] = tested on: MC-38; assay: Cytotoxicity against mouse C38 cells at 200 ug/disk by disk diffusion soft agar colony formation assay; assay type: functional
[10] = tested on: L1210; assay: Cytotoxicity against mouse L1210 cells at 200 ug/dusk by disk diffusion soft agar colony formation assay; assay type: functional
[11] = tested on: UACC-257; assay: Antitumor activity against human UACC257 cells; assay type: functional, cell-based
[12] = tested on: SNB-75; assay: Antitumor activity against human SNB75 cells; assay type: functional, cell-based
[13] = tested on: HT-29; assay: Antitumor activity against human HT-29 cells; assay type: functional, cell-based
[14] = tested on: M14; assay: Antitumor activity against human M14 cells; assay type: functional, cell-based
[15] = tested on: SF-539; assay: Antitumor activity against human SF539 cells; assay type: functional, cell-based
[16] = tested on: U-251; assay: Antitumor activity against human U251 cells; assay type: functional, cell-based
[17] = tested on: MCF7; assay: Antitumor activity against […] human MCF7 cells; assay type: functional, cell-based
[18] = tested on: MOLT-4; assay: Antitumor activity against human MOLT4 cells; assay type: functional, cell-based
[19] = tested on: T47D; assay: Antitumor activity against human T47D cells; assay type: functional, cell-based
[20] = tested on: A498; assay: Antitumor activity against human A498 cells; assay type: functional, cell-based
[21] = tested on: UACC-62; assay: Antitumor activity against human UACC62 cells; assay type: functional, cell-based
[22] = tested on: KM12; assay: Antitumor activity against human KM12 cells; assay type: functional, cell-based
[23] = tested on: SF-295; assay: Antitumor activity against human SF295 cells; assay type: functional, cell-based
[24] = tested on: MDA-MB-231; assay: Antitumor activity against human MDA-MB-231 cells; assay type: functional, cell-based
[25] = tested on: HL-60(TB); assay: Antitumor activity against human HL-60(TB) cells; assay type: functional, cell-based
[26] = tested on: DU-145; assay: Antitumor activity against human DU145 cells; assay type: functional, cell-based
[27] = tested on: CCRF-CEM; assay: Antitumor activity against human CCRF-CEM cells; assay type: functional, cell-based
[28] = tested on: NCI-H226; assay: Antitumor activity against human NCI-H226 cells; assay type: functional, cell-based
[29] = Antitumor activity against human Hs 578T cells; assay type: functional, cell-based
[30] = tested on: NCI-H522; assay: Antitumor activity against human NCI-H522 cells; assay type: functional, cell-based
[31] = tested on: MC-38; assay: Cytotoxicity against mouse C38 cells at 0.4 ug/disk by disk diffusion soft agar colony formation assay; assay type: functional
[32] = tested on: PC-3; assay: Antitumor activity against human PC3 cells; assay type: functional, cell-based
[33] = tested on: SK-MEL-5; assay: Antitumor activity against human SK-MEL-5 cells; assay type: functional, cell-based
[34] = tested on: HCT-15; assay: Antitumor activity against human HCT15 cells; assay type: functional, cell-based
[35] = tested on: RXF 393; assay: Antitumor activity against human RXF393 cells; assay type: functional, cell-based
[36] = tested on: MCF7; assay: Antitumor activity against human MCF7 cells; assay type: functional, cell-based
[37] = tested on: TK-10; assay: Antitumor activity against human TK10 cells; assay type: functional, cell-based
[38] = tested on: MDA-MB-435; assay: Antitumor activity against human MDA-MB-435 cells; assay type: functional, cell-based
[39] = tested on: CCRF-CEM; assay: Cytotoxicity against human CEM cells at 0.4 ug/disk by disk diffusion soft agar colony formation assay; assay type: functional
[40] = tested on: L1210; assay: Cytotoxicity against mouse L1210 cells at 0.4 ug/disk by disk diffusion soft agar colony formation assay; assay type: functional
[41] = tested on: OVCAR-4; assay: Antitumor activity against human OVCAR4 cells; assay type: functional, cell-based
[42] = tested on: HOP-62; assay: Antitumor activity against human HOP62 cells; assay type: functional, cell-based
[43] = tested on: IGROV-1; assay: Antitumor activity against human IGROV1 cells; assay type: functional, cell-based
[44] = tested on: OVCAR-5; assay: Antitumor activity against human OVCAR5 cells; assay type: functional, cell-based
[45] = tested on: BT-549; assay: Antitumor activity against human BT549 cells; assay type: functional, cell-based
[46] = tested on: SK-MEL-28; assay: Antitumor activity against human SK-MEL-28 cells; assay type: functional, cell-based
[47] = tested on: UO-31; assay: Antitumor activity against human UO31 cells; assay type: functional, cell-based
[48] = tested on: HCC 2998; assay: Antitumor activity against human HCC2998 cells; assay type: functional, cell-based
[49] = tested on: EKVX; assay: Antitumor activity against human EKVX cells; assay type: functional, cell-based
[50] = tested on: NCI-H23; assay: Antitumor activity against human NCI-H23 cells; assay type: functional, cell-based
[51] = tested on: OVCAR-3; assay: Antitumor activity against human OVCAR-3 cells; assay type: functional, cell-based
[52] = Cytotoxicity against human H116 cells at 0.4 ug/disk by disk diffusion soft agar colony formation assay; assay type: functional
[53] = tested on: Malme-3M; assay: Antitumor activity against human MALME-3M cells; assay type: functional, cell-based
[54] = tested on: COLO 205; assay: Antitumor activity against human COLO205 cells; assay type: functional, cell-based
[55] = tested on: HCT-116; assay: Antitumor activity against human HCT116 cells; assay type: functional, cell-based
[56] = tested on: RPMI-8226; assay: Antitumor activity against human RPMI8226 cells; assay type: functional, cell-based
[57] = tested on: K562; assay: Antitumor activity against human K562 cells; assay type: functional, cell-based
[58] = tested on: MDA-N; assay: Antitumor activity against human MDA-N cells; assay type: functional, cell-based
[59] = tested on: LOX IMVI; assay: Antitumor activity against human LOXIMVI cells; assay type: functional, cell-based
[60] = tested on: SN12C; assay: Antitumor activity against human SN12C cells; assay type: functional, cell-based
[61] = tested on: ACHN; assay: Antitumor activity against human ACHN cells; assay type: functional, cell-based
[62] = tested on: OVCAR-8; assay: Antitumor activity against human OVCAR8 cells; assay type: functional, cell-based
[63] = tested on: NCI-H322M; assay: Antitumor activity against human NCI-H322M cells; assay type: functional, cell-based
[64] = tested on: A549; assay: Antitumor activity against human A549/ATCC cells; assay type: functional, cell-based
[65] = Antitumor activity against human 786-O cells; assay type: functional, cell-based; details: 786-0
[66] = tested on: SR; assay: Antitumor activity against human SR cells; assay type: functional, cell-based
[67] = tested on: CAKI-1; assay: Antitumor activity against human Caki1 cells; assay type: functional, cell-based
[68] = Cytotoxicity against human H125 cells at 0.4 ug/disk by disk diffusion soft agar colony formation assay; assay type: functional
[69] = tested on: SK-OV-3; assay: Antitumor activity against human SKOV3 cells; assay type: functional, cell-based
[70] = Cytotoxicity against mouse CFU-GM cells at 0.4 ug/disk by disk diffusion soft agar colony formation assay; assay type: cell-based
[71] = tested on: NCI-H460; assay: Antitumor activity against human NCI-H460 cells; assay type: functional, cell-based
[72] = tested on: SW-620; assay: Antitumor activity against human SW620 cells; assay type: functional, cell-based
[73] = tested on: SF-268; assay: Antitumor activity against human SF268 cells; assay type: functional, cell-based
[74] = tested on: SNB-19; assay: Antitumor activity against human SNB19 cells; assay type: functional, cell-based
[75] = tested on: CCRF-CEM; assay: Cytotoxicity against human CEM cells at 3.4 ug/disk by disk diffusion soft agar colony formation assay; assay type: functional
[76] = Cytotoxicity against human H125 cells at 3.4 ug/disk by disk diffusion soft agar colony formation assay; assay type: functional
[77] = Cytotoxicity against mouse CFU-GM cells at 3.4 ug/disk by disk diffusion soft agar colony formation assay; assay type: cell-based
[78] = Cytotoxicity against human H116 cells at 3.4 ug/disk by disk diffusion soft agar colony formation assay; assay type: functional
[79] = tested on: CCRF-CEM; assay: Cytotoxicity against human CEM cells at 0.8 ug/disk by disk diffusion soft agar colony formation assay; assay type: functional
[80] = Cytotoxicity against human H125 cells at 0.8 ug/disk by disk diffusion soft agar colony formation assay; assay type: functional
[81] = tested on: MC-38; assay: Cytotoxicity against mouse C38 cells at 3.4 ug/disk by disk diffusion soft agar colony formation assay; assay type: functional
[82] = Cytotoxicity against human H116 cells at 0.8 ug/disk by disk diffusion soft agar colony formation assay; assay type: functional
[83] = tested on: L1210; assay: Cytotoxicity against mouse L1210 cells at 3.4 ug/disk by disk diffusion soft agar colony formation assay; assay type: functional

Structure (SMILES): COC(=O)c1ccccc1-[n+]1ccc2c(c1)[nH]c1ccccc12.[Cl-] [RETICULATINE]
- Activity [1]: 500 Zone units
- Activity [2]: 350 Zone units
- Activity [3]: 600 Zone units
- Activity [4]: 500 Zone units
- Activity [5]: 450 Zone units
- Activity [6]: 600 Zone units

Structure (SMILES): COC(=O)c1ccc(Br)cc1-[n+]1ccc2c(c1)[nH]c1ccccc12.[Cl-]
- Activity [7]: 250 Zone units
- Activity [8]: 200 Zone units
- Activity [9]: 400 Zone units
- Activity [10]: 350 Zone units

Structure (SMILES): O=C1c2ccccc2-[n+]2ccc3c([nH]c4ccccc43)c21.[Cl-] [FASCAPLYSIN CHLORIDE]
- IC50 [11]: > 10 µM
- IC50 [12]: 5.4 µM
- IC50 [13]: > 10 µM
- IC50 [14]: 0.92 µM
- IC50 [15]: 4.2 µM
- IC50 [16]: 3.6 µM
- IC50 [17]: > 10 µM
- IC50 [18]: > 10 µM
- IC50 [19]: > 10 µM
- IC50 [20]: 5.2 µM
- IC50 [21]: 4.9 µM
- IC50 [22]: 4.6 µM
- IC50 [23]: 3.9 µM
- IC50 [24]: > 10 µM
- IC50 [25]: > 10 µM
- IC50 [26]: 4.9 µM
- IC50 [27]: > 10 µM
- IC50 [28]: 9.6 µM
- IC50 [29]: > 10 µM
- IC50 [30]: 4.5 µM
- Activity [31]: 500 Zone units
- IC50 [32]: > 10 µM
- IC50 [33]: 2 µM
- IC50 [34]: > 10 µM
- IC50 [35]: 3.5 µM
- IC50 [36]: > 10 µM
- IC50 [37]: 5.4 µM
- IC50 [38]: 0.56 µM
- Activity [39]: 300 Zone units
- Activity [40]: 400 Zone units
- IC50 [41]: 5.3 µM
- IC50 [42]: 4.7 µM
- IC50 [43]: 4.5 µM
- IC50 [44]: 4.4 µM
- IC50 [45]: > 10 µM
- IC50 [46]: 9.3 µM
- IC50 [47]: > 10 µM
- IC50 [48]: 1.7 µM
- IC50 [49]: 5.1 µM
- IC50 [50]: 4.5 µM
- IC50 [51]: 1.5 µM
- Activity [52]: 500 Zone units
- IC50 [53]: 0.36 µM
- IC50 [54]: 1.2 µM
- IC50 [55]: 0.6 µM
- IC50 [56]: > 10 µM
- IC50 [57]: > 10 µM
- IC50 [58]: 0.56 µM
- IC50 [59]: > 10 µM
- IC50 [60]: 4.2 µM
- IC50 [61]: > 10 µM
- IC50 [62]: > 10 µM
- IC50 [63]: 5 µM
- IC50 [64]: 4.2 µM
- IC50 [65]: 6.7 µM
- IC50 [66]: > 10 µM
- IC50 [67]: 6.1 µM
- Activity [68]: 400 Zone units
- IC50 [69]: > 10 µM
- Activity [70]: 200 Zone units
- IC50 [71]: 4.2 µM
- IC50 [72]: 3.7 µM
- IC50 [73]: > 10 µM
- IC50 [74]: 6.1 µM

Structure (SMILES): O=C1c2ccccc2-[n+]2ccc3c([nH]c4cc(Br)ccc43)c21.[Cl-]
- Activity [75]: 400 Zone units
- Activity [76]: 750 Zone units
- Activity [77]: 350 Zone units
- Activity [78]: 600 Zone units
- Activity [79]: 200 Zone units
- Activity [80]: 500 Zone units
- Activity [81]: 450 Zone units
- Activity [82]: 400 Zone units
- Activity [83]: 550 Zone units
